# According to patent publication US20090312373A1, “METHODS FOR THE TREATMENT OF CANCER USING PIPERLONGUMINE AND PIPERLONGUMINE ANALOGS” (The General Hospital Corporation, priority 2008, published 2009):
# Key:
# [1] = system: p53; assay: Western blot of p53 and p53 target expression in human cancer cells; assay type: cell-based
# From the text: Thus, piperlongumine is a p53 activator as well as an activator for proapoptotic targets.
# [2] = Precipitation on dilution of DMSO solution; assay type: physicochemical; conditions: diluted 1:10 in phosphate buffered saline or water
# Description: To avoid toxicity, piperlongumine should be used at less than 2.5 mg/kg in mice. The skilled person will know how to formulate the compounds of the invention in accordance with the solubility by selection of appropriate carriers, solubilizers, etc.
# [3] = system: EJ Human Bladder Carcinoma Cells; assay: Angiogenesis in EJ bladder carcinoma tumor bearing nude mice; assay type: in vivo, mouse; conditions: 1.5 mg/kg i.p. every two days for 2.5 weeks
# Description: EJ Human Bladder Carcinoma Cells (10^6 Cells) were Subcutaneously Transplanted into the back of the skin of immunodeficient nude mice (total 16 mice). After 2 weeks (tumor sizes of approximately 8-10 mm), piperlongumine (SP2007; 1.5 mg/kg) or vehicle (10% DMSO) was injected into tumor bearing mice by i.p. every two days for 2.5 weeks. The effect of piperlongumine was evaluated by opening the tumor site.
# [4] = system: human cancer cell lines; assay: Cell growth inhibition and cell death/apoptosis in a panel of human cancer cell lines; assay type: cell-based
# From the text: We evaluated the ability of piperlongumine to induce apoptosis in a panel of human cancer cells (>40 human cancer cell lines) including cell lines with both wt and mutant p53 status, including non-functional mutants (See Table 1).
# [5] = system: human cancer cell lines; assay: SRB (Sulforhodamine B) staining assay in human cancer cell lines; assay type: cell-based
# Description: (§1) The tumor growth inhibitory effect of piperlongumine was evaluated in a variety of human cancer cell lines. Cells were grown in ˜50-70% confluency and treated with piperlongumine and known anti-cancer agents at various concentrations (0.1-30 μM) and analyzed for cell death or viability by SRB (Sulforhodamine B) staining assay. The SRB assay is a well established assay that is used for the detection of cell death, viability or proliferation in drug screening.
# [6] = system: lung cancer tumors; assay: Lung tumor model in mice; assay type: in vivo, mouse
# [7] = system: CDIP promoter containing p53 binding site; assay: CDIP promoter/p53 responsive site luciferase reporter screen; assay type: cell-based, human
# From the text: We screened a small molecule library of biologically active compounds using a Luciferase reporter gene construct fused with CDIP (Cell Death Involved p53 target) promoter/p53 responsive site as a read-out assay. p53 transcriptional activators were identified from screening the diversity set of the biologically active library using U2OS human cancer cells expressing the p53-responsive reporter. Briefly, a reporter construct was created that included the CDIP promoter operatively linked to the luc2 luciferase reporter gene. We stably expressed a human p53 reporter, luciferase2/Puro+CDIP promoter, which carries the firefly luciferase gene under the control of p53-responsive elements of CDIP promoter, in U2OS cells. Stable cell lines were produced that expressed the reporter construct, and the cells were plated in 384 well plates at ˜10,000 cells per well. Test compounds were added to the plated cells at two replicates per compound, and the cells were incubated with the compounds for 24 hours. The data were analyzed using Spotfire. The initial screen identified several compounds that activated p53-responsive reporter expression during 48 hours.
# [8] = system: patient-derived osteocarcoma samples; assay: Histoculture Drug Response Assay (HDRA), osteosarcoma; assay type: cell-based, human
# From the text: Piperlongumine (SP2007) was compared to a variety of known anti-cancer agents in a Histoculture Drug Response Assay (HDRA). HDRA is an assay that provides a reliable approach to determine the profile of in vivo chemo-sensitivity in cancer patients. The assay allows for a three-dimensional culture, the testing of patient tumor sensitivity, the evaluation of treatment option for individual patients with solid tumor types and a high correlation to clinical drug sensitivity (Flowers J L et al., Cancer Chemother. Pharmacol. 2003 September 52 (3): 253-261). The assays were performed by Anti-cancer Inc., (San Diego, Calif.). An average of twenty samples was tested for each tumor type.
# [9] = Long-term piperlongumine treatment toxicity in mice; assay type: in vivo, mouse; conditions: 2.4 mg/kg injected multiple times for 4 weeks
# Description: Piperlongumine (2.4 mg/kg) was injected into mice (8 mice per group) multiple times for 4 weeks. […] After 4 weeks the mice were killed and examined for changes in gross histology in target organs.
# [10] = system: p53; assay: p53 acetylation Western blot in U2OS cells; assay type: cell-based, human; conditions: 6 hours
# Description: U2OS cells were treated with piperlongumine (SP), the HDAC inhibitor TSA (trichostatin A ([…])) or the control DMSO for 6 hours. Cell extracts were fractionated in SDS-PAGE gel and analyzed by western blot.
# [11] = system: p120ctn/vimentin/N-cadherin complex; assay: Vimentin immunoprecipitation / p120ctn Western blot in EJ cells; assay type: cell-based, human; conditions: 10 μM
# Description: It is well-established that Twist plays a major role in tumor development and metastasis. Thus, we investigated whether piperlongumine (SP2007) mechanistically regulates a key signaling pathway involving a complex of p120ctn/vimentin/N-cadherin which is a Twist target that promotes tumor cell migration and invasion/metastasis. EJ cells were treated with 10 μM piperlongumine or vehicle for 20 hours and cell lysates were subsequently immunoprecipitated by Vimentin antibody (Sigma Aldrich, St. Louis, Mo.) followed by western blot against p120ctn to analyze the association of the p120ctn/vimentin/N-cadherin complex.
# EJ cells were treated with piperlongumine (SP2007) (10 μM) for 12 hours. Subsequently the cells were harvested and subjected to immunoprecipitations using vimentin antibodies (Sigma Aldrich) to precipitate the vimentin complex. Western blots were performed for p120 CTN and vimentin. DMSO (D) treated cells were used as control IP experiments.
# [12] = system: drug-resistant A549 lung cancer cell lines; assay: Tumor cell killing in drug-resistant A549 lung cancer cell lines; assay type: cell-based, human
# Description: as §1
# Tumor cell killing by piperlongumine was also tested in drug-resistant A549 lung cancer cell lines and compared to known anti-cancer agents (see FIG. 19).
# [13] = system: breast cancer tumors; assay: Breast tumor in mice; assay type: in vivo, mouse
# Description: We tested piperlongumine in colon tumor, breast, melanoma or bladder tumor xenograft-bearing mice to evaluate the anti-tumor effect of piperlongumine. We examined EJ human bladder cancer cell xenografts (non-functional p53) to evaluate anti-tumor effects. A total of 2×10^6 EJ cells or SW480 cells were implanted subcutaneously on opposite site flanks in each of six nude/nude mice in each group. When tumor masses grew to ˜5-10 mm in diameter, piperlongumine was administered intraperitoneally (28 ug per each intraperitoneal administration, total 1.2 mg/kg) every 48 hours for 12 days (6 times total).
smiles,measurement,setting,value
"COc1cc(/C=C/C(=O)N2CCC=CC2=O)cc(OC)c1OC [piperlongumine, N-(3,4,5,-trimethoxycinnamoyl)-Δ^3-piperidine-2-one]",Puma expression,[1]; human cancer cells,significantly induced
same,p53 expression (Western blot),"[1]; relatively low concentrations, U2OS and HCT116 human cancer cells",significantly induced
same,concentration in DMSO that precipitated out when diluted 1:10,[2],more than 0.25 mg/ml
same,blood-vessel formation at the tumor sites,[3],did not show considerable blood-vessel formation
same,expression of angiogenic marker VEGF (immunohistochemistry),[3]; compared to vehicle,significantly reduced
same,sub-G1 apoptotic population of cells,[4]; HCT116 cells,increased
same,potencies for tumor cell growth inhibition and cell death/apoptosis,"[4]; various human cancer cells, regardless of p53 status",2.5 to 20 µM
same,tumor cell growth inhibition compared to known anti-cancer drugs,"[5]; 0.1-30 μM, variety of human cancer cell lines",as well as or better than other well-known anti-cancer drugs
same,cell growth,[5]; glioblastoma cell lines,inhibits cell growth
same,cell growth,[5]; human melanoma and ovarian cancer cell lines,inhibits cell growth
same,cell growth,[5]; human renal cancer cell lines,inhibits cell growth
same,killing of lung cancer tumors,[6],effective killing
same,luciferase activity of the CDIP promoter containing p53 binding site,"[7]; 10 μM, U2OS cells",significantly increased
same,composite Z value in the screen,"[7]; among natural compound candidates, U2OS reporter cells",highest composite Z value
same,growth of patient-derived tumor samples,[8],inhibits growth
same,mortality,[9],None of the mice died
same,"gross histology in kidney, liver and lung",[9]; hematoxilin and eosin staining,no change in gross histology
same,amount of acetylated p53,[10],increased the amount of acetylated p53 to a level similar to TSA treated cells
same,total amount of p53,[10]; TSA 10 mM,did result in an increased
same,p120 in the complex precipitated with vimentin,[11]; 12 hours,p120 was not in the complex
same,association of the p120ctn/vimentin/N-cadherin complex,[11]; 20 hours,dissociation
same,tumor cell growth inhibition compared to other anti-cancer drugs,[12],more effective
same,killing of breast cancer tumors,[13],effective killing
